Measured values as given in article PMC9241695, “Selective Metal Chelation by a Thiosemicarbazone Derivative Interferes with Mitochondrial Respiration and Ribosome Biogenesis in Candida albicans” (Microbiology Spectrum, 2022).
Values after ≈ are worked out from the molar mass of the structure shown.

What was measured:
[1] = tested on: A. fumigatus AF293; experiment: Antifungal susceptibility testing, microbroth dilution MIC; format: cell-based; details: Aspergillus fumigatus, AF293; standard strain of A. fumigatus; 48 h; read-out: MIC (μg/mL) against fungi AF293
Description: (§1) Compound library. The thiosemicarbazone derivatives Triapine and COTI-2 were purchased from Med Chem Express (MCE). The other 87 thiosemicarbazones used in this study were previously synthesized by our collaborators (1, 2). Their structures are shown in Table 1 and Table S1 to help the reader clearly understand the relationship between structure and activity.
(§2) Strains and culture conditions. Clinically derived C. albicans isolates, including G5, F5, and Gu5, were kindly provided by Professor Joachim Morschhäuser of the University of Würzburg. Other clinical C. albicans isolates were kindly donated by Professor Qingguo Qi of Shandong University and Qianfoshan Hospital of Shandong Province Other Candida strains were obtained from Jinan Central Hospital.
(§3) The zap1 mutant and its complemented strain were kindly provided by Professor Aaron P. Mitchell of Carnegie Mellon University (3). The C. neoformans strains used in this study was kindly donated by Professor Guojian Liao of Southwest University and A. fumigatus strain used in this study was provided by Professor Ling Lu of Nanjing Normal University. […]
(§4) Antifungal susceptibility testing. To determine in vitro antifungal activities, the microbroth dilution method was carried out in RPMI1640 medium according to the guidelines of the Clinical and Laboratory Standards Institute (4, 5). The initial concentration in RPMI1640 medium was 1 × 10^3 CFU/mL for the C. albicans and C. neoformans suspensions but 1 × 10^4 CFU/mL for A. fumigatus. The range of final drug concentrations was 0.0156–64 μg/mL. The plates were incubated at35°C for 24 […]
(§5) h (for C. albicans, C. krusei, C. tropicalis, C. parapsilosis) or 48 h (for C. neoformans, A. fumigatus). The MIC was determined based on visible growth inhibition compared with the control. All experiments were performed in duplicate. […]

[2] = tested on: C. neoformans H99; experiment: as above; format: cell-based; details: Cryptococcus neoformans, H99; C. neoformans wild-type strain; 48 h; read-out: MIC (μg/mL) against fungi H99
Description: as §1, §2, §3, §4, §5

[3] = tested on: C. krusei CK1; experiment: Microbroth dilution MIC80; format: cell-based, Candida krusei; details: Pichia kudriavzevii, CK1
Description: as §1, §2
as §3, with “University. Before in vitro and in vivo experiments, all C. albicans strains were grown on YPD agar plates. After culturing at 30°C for 24 h, colonies of each strain were cultured in liquid YPD medium at 30°C with continuous shaking” for “University.”
as §4, §5

[4] = tested on: mitochondrial respiratory chain complex III; experiment: Mitochondrial respiratory chain complex activity in isolated mitochondria; format: biochemical, Candida albicans; details: purified mitochondria, 0.125-1 μg/mL, 6 h
Experimental: Mitochondrial isolation and detection of mitochondrial respiratory chain complex activity. Mitochondria were isolated from C. albicans spheroplasts as previously described (8). A dilution series of 19ak was added to the mitochondrial suspensions to obtain final concentrations of 0, 0.125, 0.25, 0.5, and 1 μg/mL and incubated for 6 h at 30°C. The activities of mitochondrial respiratory chain complexes I-IV were determined by using the Micro Mitochondrial Respiratory Chain Complex Activity Assay Kit (Solarbio, Beijing, China). The concentration of protein was determined using the BCA Protein Assay Kit (Beyotime, Haimen, China).
(§6) Mitochondrial complex activity was expressed as nmol/min/mg protein. […]

[5] = tested on: C. albicans SC5314 cells; experiment: Mitochondrial membrane potential by Rh123; format: cell-based, Candida albicans; details: 0.125-1 μg/mL, 30°C, 6 h
Experimental: the fluorescent complex […] (CTF) is commonly used to indicate the intensity of microbial respiration. C. albicans SC5314 treated with 19ak was stained with 1 mM CTC for 30 min, followed by flow cytometry analysis of respiratory activity based on fluorescence intensity. Images of cells were obtained using a fluorescence microscope (IX71, Olympus, Tokyo, Japan). The Cell Counting Kit-8 (CCK-8) assay is used to measure the dehydrogenase activity in the mitochondria of C. albicans or mammalian cells. C. albicans SC5314 (5 × 10^6 cells/mL in RPMI1640 medium) were treated with different concentrations of 19ak in 96-well plates at 30°C for 12 h or 48 h. […] After an additional 2 h of incubation, OD450 in each well was detected with a microplate reader. […]
Mitochondrial isolation and detection of mitochondrial respiratory chain complex activity. […] The activities of mitochondrial respiratory chain complexes I-IV were determined by using the Micro Mitochondrial Respiratory Chain Complex Activity Assay Kit (Solarbio, Beijing, China). The concentration of protein was determined using the BCA Protein Assay Kit (Beyotime, Haimen, China).
as §6
Measurement of intracellular ATP production. […] Cellular protein concentrations were determined using a BCA Protein Assay Kit (Beyotime, Haimen, China). […]

[6] = tested on: C. albicans SC5314; experiment: Time-growth curve with antioxidants; format: cell-based, Candida albicans; details: SC medium, 5 mM NAC or 5 mM Tu, 0.25 or 0.5 μg/mL 19ak, 15 h
Experimental: albicans SC5314 cells (1 × 10^6 cells/mL) were challenged with various doses of 19ak and incubated at 30°C for 6 h, followed by staining with 20 μM Rh123 for 30 min in the dark and detection by flow cytometry (Becton Dickinson, CA, USA).
Measurement of intracellular ATP production. To explore whether 19ak affects intracellular ATP content by damaging mitochondria, we treated C. albicans SC5314 cells (1 × 10^6 cells/mL) with different doses of 19ak. After lysing the cells in lysis buffer, ATP levels were measured with the ATP Assay Kit (Beyotime, Haimen, China) according to the manufacturer's instructions. Cellular protein concentrations were determined using a BCA Protein Assay Kit (Beyotime, Haimen, China). The intracellular ATP content was calculated by referring to a standard curve and normalized using the protein content of each sample for expression as nmol/mg […]
ROS production assay. […] The fluorescence intensity was then measured by flow cytometry, and the data were analyzed with Win MDI 2.9 software.
Influence of oxidant or antioxidant molecules on 19ak activity. […] The effects of NAC, Tu and DTT on the growth of 19ak treated fungal cells were measured using a time-growth curve. […] A microplate reader was used to measure the absorbance at600 nm, and the growth curves were plotted.

For C/C(=N\NC(=S)N(C)C)c1ccccn1 [Compound 19ak], the MIC [1] was 0.5 µg/mL (≈ 2.25 µM), the MIC [2] was 0.5 µg/mL (≈ 2.25 µM) and the MIC80 [3] was 0.125 µg/mL (≈ 0.562 µM). For the same molecule, the “Activity of mitochondrial respiratory chain complex III” value [4] was “slightly inhibited”, the “Mitochondrial membrane potential (mtΔψ), Rh123” value [5] was “decrease in mtΔψ” and the “Effect of antioxidants NAC and Tu on antifungal activity (cell growth monitoring)” value [6] was “greatly enhanced the antifungal activity”.
